Tested on: Nrf2-ARE-mediated transcription
Test: ARE Reporter - HepG2 cell line luciferase assay
Assay type: cell-based, human
Conditions: ARE reporter HepG2 cells, TZ 1 μM, ELA 3 μM, 18 h exposure, significant = fold induction over DMSO above 2 and p<0.05
Description: The ARE Reporter—Hep G2 cell line is designed to monitor Nrf2 antioxidant response pathway. The cell contains a firefly luciferase gene under the control of ARE (antioxidant response element) stably integrated into Hep G2 cells.
ARE reporter—HepG2 cells (BPS Bioscience, Inc., San Diego, cat #60513) were cultured following manufacturer's instructions. After thawing (BPS thaw medium 1K, cat #60187), cells were cultured in growth-medium (BPS growth medium 1K, cat #79533) and subsequently plated at a density of 40 000 cells per well in a 96-well microplate in 45 μL of assay medium (BPS thaw medium). TZ, ELA and DL-Sulforaphane (Sigma cat #S4441) were dissolved in DMSO and diluted into assay medium. 5 μl of dilution were added on cells to reach a final concentration of 1 μM for TZ and 3 μM for ELA. DL-Sulforaphane was used as a positive control at the dose of 3 μM. After 18 h exposure, luciferase activity was determined. 50 μL of One-Step Luciferase assay system (BPS cat #60690) were added per well and after ~15 min of rocking at room temperature, luminescence was measured using a luminometer.
Fold induction over DMSO above 2 and with a p-value <0.05 was considered as significant.

O=C(Nc1ncc([N+](=O)[O-])s1)c1ccccc1O [TZ]
activation of Nrf2-antioxidant pathway compared to the untreated condition: induces a significant activation

Source: patent publication US12678427B2, “Combination therapy having antioxydant properties” (GENFIT, priority 2019, dated 2026)
